How the values were obtained:
[1] = Clinical plasma and CSF pharmacokinetics, part A; assay type: in vivo; details: human
Method: Protocol CC-90010-ST-001 Celgene Corporation
Following oral administration of CC-90010, geometric mean peak exposure to CC-90010, based on Cmax, increased with dose on Day 1 (single dose) and after last dose (repeated dosing), in a manner approximately proportional with dose. Across all dose levels and both sampling occasions, Cmax was observed a few hours after dosing, with median tmax ranging from 1 to 2 hours postdose. The terminal elimination half-life, where estimated, was generally similar across the dose schedules, ranging from approximately 40 to 70 hours, after repeated dosing of […]
across the dose levels, after repeated dosing of CC-90010. There was evidence of accumulation after repeated dosing of CC-90010 for all dose schedules and dose levels, with accumulation […]
Between-subject variability across the dose levels ranged from 22.0% to 91.7% on Day 1 based […]
Cerebrospinal fluid samples were collected for one subject, who had quantifiable cerebrospinal fluid concentrations of CC-90010, with an average time matched CSF/plasma ratio of 6.6%.
1.4. Safety Monitoring Plan […]
(1 picture or pasted object on this page, not shown here)
The provisional CC-90010 dose levels (total doses within on cycle) are: 180 mg in Schedule 1, […]
220 mg in Schedule 4. It is however possible for some doses to be skipped or additional dose levels to be added during the course of the study, based on the emerging safety information.
After each cohort the posterior distributions for the probabilities of a DLT rates at different dose levels are obtained. The results of this analysis are summarized in terms of the estimated probabilities that the true rate of DLT at each dose-level will have of lying in each of the […]
• [0.16, 0.33) targeted toxicity
• [0.33, 1.00] excessive toxicity.
Following the principle of escalation with EWOC, after each cohort of subjects the recommended dose is the one with the highest posterior probability of the DLT rate falling in the target interval [16%, 33%) among the doses fulfilling EWOC, ie, it is unlikely (<25% posterior probability) that the DLT rate at the dose falls in the excessive toxicity interval.
Note that the dose that maximizes the posterior probability of targeted toxicity is the best estimate of the MTD, but it may not be an admissible dose according to the overdose criterion if the amount of data is insufficient. […]
Plasma PK parameters such as AUC0-24, C max, Tmax, t1/2, CL/F, and Vz/F of CC-90010 will be calculated by the noncompartmental analysis method from the plasma concentration-time profiles of CC-90010. Additional PK parameters including CSF to plasma concentration ratio of CC-90010, may be calculated, if data permits. […]

[2] = tested on: TNBR3 TNBC PDX-derived model; parameters: method as in Investigator's Brochure; details: TNBR3, ref Investigator's Brochure; read-out: IC50, colony formation; cited from earlier work
[3] = tested on: CYP3A4/5, CYP2C8; parameters: method as in Investigator's Brochure; details: ref Investigator's Brochure; cited from earlier work
[4] = tested on: CYP2C8; parameters: method as in Investigator's Brochure; details: CYP2C8, ref Investigator's Brochure; read-out: IC50, direct inhibition; cited from earlier work
[5] = tested on: CYP1A2, CYP2A6, CYP2B6, CYP2C8, CYP2C9, CYP2C19, CYP2D6, CYP2E1, and CYP3A4/5; parameters: method as in Investigator's Brochure; details: all nine isozymes tested, ref Investigator's Brochure; cited from earlier work
[6] = parameters: method as in Investigator's Brochure; details: rats, IV, non-radiolabeled, ref Investigator's Brochure; cited from earlier work

## Cn1cc(-c2cc(S(C)(=O)=O)ccc2OCC2CC2)c2ccccc2c1=O [trotabresib]
[1]; CSF, oral, one subject, read-out: average time matched CSF/plasma ratio
  Kp: 0.066
[1]; in vivo, part A, across all dose levels, Day 1 and last dose, read-out: median tmax
  Tmax: 1 to 2 h
[1]; in vivo, part A, across dose levels, after repeated dosing, read-out: Vss/F
  Vd/F: 134 to 553 L
[1]; in vivo, part A, across dose schedules, after repeated dosing, read-out: terminal elimination half-life
  half-life: 40 to 70 h
[2]
  IC50: 80 nM
[3]
  enzymes mediating metabolism: mediated primarily by CYP3A4/5 with minor involvement of CYP2C8
[4]
  IC50: ≥ 13900 nM
[5]
  time-dependent inhibition: little to no time-dependent
[6]
  dose excreted intact in bile or urine, average: 0.9 % of the dose

Source: article PMC10011554, “BET inhibitor trotabresib in heavily pretreated patients with solid tumors and diffuse large B-cell lymphomas” (Nature Communications, 2023)
